In PubChem BioAssay (NCI) one finds TGI data, which are given here for one molecule.

Some test systems named below: DMS 273 small cell lung; M19-MEL melanoma; DLD-1 colon; P388/ADR leukemia; RXF-631 renal; SN12K1 renal; DMS 114 small cell lung; P388 leukemia; LXFL 529 NSCLC; HOP-18 NSCLC; XF 498 CNS; MDA-N.
What all share (experiment): NCI tumour cell line growth inhibition, 48 h

The structures appear in SMILES notation.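 These data come from cells grown in 96-well plates and exposed to compound for 48 hours at five concentrations. Definition used: TGI = concentration required for complete inhibition of growth.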

As for `COC(=O)NC1C(C)OC(OC2C/C=C(/C)C3C=CC4C(OC5CC(OC6CC(O)C(OC7CC(O)C(OC)C(C)O7)C(C)O6)C(O)C(C)O5)C(C)CC(C)C4C3(C)/C(O)=C3\C(=O)OC4(CC(C)C(CO)=CC4/C=C\2C)C3=O)CC1(C)[N+](=O)[O-]` (configuration not stated), the TGI in the experiment on DMS 273 small cell lung is 28.9 µM; in the experiment with M19-MEL melanoma it was 13.1 µM; in the experiment on DLD-1 colon it was 40.4 µM; in the experiment on P388/ADR leukemia, 98.1 µM; in the experiment on RXF-631 renal, 41.7 µM; with SN12K1 renal, 22.6 µM. The TGI with DMS 114 small cell lung was found to be 11.5 µM; in the experiment on P388 leukemia it was 17.4 µM; in the experiment on LXFL 529 NSCLC, 9.19 µM; with HOP-18 NSCLC it was 31.4 µM; with XF 498 CNS, 27 µM; in the experiment on MDA-N, 19.5 µM.
